Source: the SangsterLogP compilation

Test: method code SF-AS, from DOI: 10.1002/jps.2600820804

First: CCc1cccc(OC(C)=O)c1
Second: CCOc1cccc(OC(C)=O)c1
The logP of the first is higher: 2.45 for the first, 2.08 for the second.

Compared with COC(=O)c1c(F)cccc1F, COC(=O)c1c(F)cccc1Cl is higher in logP: 1.96 for the first, 2.42 for the second.

Compared with O=C(O)c1c(Cl)cccc1[N+](=O)[O-], COC(=O)c1c(Cl)cccc1[N+](=O)[O-] is higher in logP: 1.56 for the first, 2.21 for the second.

COC(=O)c1ccc([N+](=O)[O-])cc1 and COC(=O)c1cccc([N+](=O)[O-])c1 are within 0.2 log units of each other in logP: 1.94 for the first, 1.89 for the second.

First: Cc1cccc(Cl)c1O
Second: Cc1cccc(Cl)c1C(=O)O
The logP of the first is higher: 2.8 for the first, 2.31 for the second.

Going from COC(=O)c1ccccc1OC to COC(=O)c1ccccc1F, the logP falls from 2.04 to 1.82.

Compared with CCc1cccc(CC)c1OC(C)=O, CCc1cccc(CC)c1O is lower in logP: 3.4 for the first, 3.03 for the second.

Compared with COC(=O)c1c(C)cccc1C, Cc1cccc(C)c1C(=O)O is lower in logP: 2.55 for the first, 2.21 for the second.

First: COC(=O)c1ccc(C)cc1
Second: COC(=O)c1ccc(F)cc1
The logP of the first is higher: 2.7 for the first, 2.28 for the second.

Compared with Oc1c(Br)cccc1Br, O=C(O)c1c(Br)cccc1Br is higher in logP: 3.36 for the first, 3.58 for the second.

Going from Oc1c(F)cccc1F to O=C(O)c1c(F)cccc1F, the logP falls from 1.96 to 1.59.

Going from NC(=O)c1ccccc1[N+](=O)[O-] to COC(=O)c1ccccc1[N+](=O)[O-], the logP rises from -0.12 to 1.66.

Going from CSc1ccccc1C(N)=O to N#Cc1ccccc1C(N)=O, the logP falls from 0.71 to 0.

Going from CC(=O)Oc1c(C)cccc1C to CC(=O)Oc1c(Cl)cccc1Cl, the logP rises from 2.32 to 2.94.

COC(=O)c1cccc(C)c1 and COC(=O)c1cccc(Cl)c1 are within 0.2 log units of each other in logP: 2.77 for the first, 2.85 for the second.

Compared with O=C(O)c1c(F)cccc1Cl, COC(=O)c1c(Cl)cccc1Cl is higher in logP: 2.11 for the first, 2.79 for the second.

Compared with COc1cccc(OC(C)=O)c1, COC(=O)c1ccccc1I is higher in logP: 1.61 for the first, 2.74 for the second.

For COC(=O)c1ccc(Br)cc1, the logP was 2.95.
